Where a chain is given by its changes, count along the chain named.
How the values were obtained:
Experiment in all cases: E. coli hemG growth inhibition by herbicide, AtPPO1 variant
Assay type in all cases: cell-based
Details in all cases: read-out: percentage growth inhibition
[1] = target: T1, AtPPO1 D448L (Arabidopsis thaliana, UniProt P55826, D448L)
T1 construct: expressed in transfected cells; host or cells: E. coli BL21(DE3) hemG, pET24a plasmid
T1 sequence (P55826 35-537 D448L): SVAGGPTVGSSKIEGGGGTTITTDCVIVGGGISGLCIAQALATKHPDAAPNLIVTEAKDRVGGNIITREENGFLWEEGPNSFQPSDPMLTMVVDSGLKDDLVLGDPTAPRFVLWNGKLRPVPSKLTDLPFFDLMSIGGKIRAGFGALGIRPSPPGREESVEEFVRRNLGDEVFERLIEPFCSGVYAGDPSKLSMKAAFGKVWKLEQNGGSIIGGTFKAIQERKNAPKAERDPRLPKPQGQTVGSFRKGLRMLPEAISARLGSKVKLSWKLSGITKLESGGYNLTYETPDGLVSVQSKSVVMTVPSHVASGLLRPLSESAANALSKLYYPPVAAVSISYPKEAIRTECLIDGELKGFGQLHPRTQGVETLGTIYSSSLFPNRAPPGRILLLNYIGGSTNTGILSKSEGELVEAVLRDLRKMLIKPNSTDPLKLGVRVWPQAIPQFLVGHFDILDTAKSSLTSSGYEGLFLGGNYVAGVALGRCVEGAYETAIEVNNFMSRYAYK
Description: (§1) A pET24a plasmid containing a DNA sequence encoding a variant of PPO1 derived from Arabidopsis thaliana (AtPPO1), codon-optimised for expression in E. coli and under control of a T7 promoter, was synthesised by Twist Bioscience (SEQ ID NO:3). This plasmid was used as the basis of a Site Saturation Variant Library (SSVL) that substituted the codons at 352 amino acid positions for codons that encoded one of the other 19 amino acids, or removed the codon altogether, resulting in a translation product with a deletion at that position.
(§2) The SSVL was batch-transformed by electroporation into an E. coli BL21(DE3) hemG strain with the hemG gene replaced by CmR conferring resistance to chloramphenicol and spread onto LA supplemented with 50 μg/mL kanamycin, 25 μg/mL chloramphenicol and 20 μg/mL hematin. Each batch consisted of all the plasmids that contained variants at two sites.
(§3) Colonies from batch transformations were inoculated into 500 μL of Terrific broth supplemented with 50 μg/mL kanamycin, 25 μg/mL chloramphenicol and 20 μg/mL hematin in 96-deepwell blocks. Cultures were grown for 24 hours at 37° C. with shaking at 250 rpm.
(§4) Overnight cultures were centrifuged and the cell pellets resuspended with 500 μL of Terrific broth. The resuspended cultures were used at a ratio of 1:100 to inoculate a fresh 96-deepwell block containing 500 μL of Terrific broth supplemented with 0.1 mM IPTG, 50 μg/mL kanamycin, 25 μg/mL chloramphenicol and 6.25 ppm of herbicide […] or E or 0.78 ppm herbicide B or DMSO. Assay cultures were grown for 24 hours at 37° C. with shaking at 250 rpm with the OD600 being measured at 24 hours post inoculation. Strains that grew in both DMSO and herbicide were determined to be herbicide tolerant with the percentage of growth inhibition being calculated as below: […]

[2] = target: T2, AtPPO1 G404A (Arabidopsis thaliana, UniProt P55826, G404A)
T2 construct: expressed in transfected cells; host or cells: E. coli BL21(DE3) hemG (pET24a, T7 promoter)
T2 sequence (P55826 35-537 G404A): T1 sequence (P55826 35-537 D448L) with G370A, L414D
Description: as §1, §2, §3, §4

[3] = target: T3, AtPPO1 Y361F (Arabidopsis thaliana, UniProt P55826, Y361F)
T3 construct: expressed in transfected cells; host or cells: E. coli BL21(DE3) hemG (pET24a, T7 promoter)
T3 sequence (P55826 35-537 Y361F): T1 sequence (P55826 35-537 D448L) with Y327F, L414D
Description: as §1, §2, §3, §4

[4] = target: T4, AtPPO1 F207Y (Arabidopsis thaliana, UniProt P55826, F207Y)
T4 construct: expressed in transfected cells; host or cells: E. coli BL21(DE3) hemG (hemG replaced by CmR), pET24a plasmid
T4 sequence (P55826 35-537 F207Y): T1 sequence (P55826 35-537 D448L) with F173Y, L414D
Description: as §1, §2, §3, §4

With CC(C)N(C)S(=O)(=O)NC(=O)c1cc(-n2c(=O)cc(C(F)(F)F)n(C)c2=O)c(F)cc1Cl [Herbicide E, saflufenacil] the inhibition at 6.25 ppm [1] was 54%, the inhibition at 6.25 ppm [2] was 2% and the inhibition at 6.25 ppm [3] was 50%. The inhibition at 6.25 ppm [4] was 66%.
C#CCN1C(=O)C(F)(F)Oc2cc(F)c(-n3c(=O)n(C)c(=S)n(C)c3=O)cc21 [Herbicide B, trifludimoxazin] showed an inhibition at 0.78 ppm [1] of 38%, an inhibition at 0.78 ppm [2] of 12% and an inhibition at 0.78 ppm [3] of 31%. It also gave an inhibition at 0.78 ppm [4] of 29%.
For CCOC(=O)[C@]1(C)CC(c2cc(-n3c(=O)n(C)c(=S)n(C)c3=O)c(F)cc2Cl)=NO1 [Herbicide D, ethyl (5S)-3-[2-chloro-5-(3,5-dimethyl-2,6-dioxo-4-thioxo-1,3,5-triazinan-1-yl)-4-fluoro-phenyl]-5-methyl-4H-isoxazole-5-carboxylate], the inhibition at 6.25 ppm [1] was 38%, the inhibition at 6.25 ppm [2] was 4% and the inhibition at 6.25 ppm [3] was 37%. For the same molecule, the inhibition at 6.25 ppm [4] was 19%.
